Biological target: Keap1 (Homo sapiens, UniProt Q14145)
Assay: Fluorescence anisotropy assay
Type: binding
Settings: for Kd: Keap1-Nrf2 binding affinity, fluorescence anisotropy assay, duplicated experiment, average; for activity in Keap1-Nrf2 fluorescence anisotropy assay: at 10 μM

Keap1, sequence (Q14145 whole entry): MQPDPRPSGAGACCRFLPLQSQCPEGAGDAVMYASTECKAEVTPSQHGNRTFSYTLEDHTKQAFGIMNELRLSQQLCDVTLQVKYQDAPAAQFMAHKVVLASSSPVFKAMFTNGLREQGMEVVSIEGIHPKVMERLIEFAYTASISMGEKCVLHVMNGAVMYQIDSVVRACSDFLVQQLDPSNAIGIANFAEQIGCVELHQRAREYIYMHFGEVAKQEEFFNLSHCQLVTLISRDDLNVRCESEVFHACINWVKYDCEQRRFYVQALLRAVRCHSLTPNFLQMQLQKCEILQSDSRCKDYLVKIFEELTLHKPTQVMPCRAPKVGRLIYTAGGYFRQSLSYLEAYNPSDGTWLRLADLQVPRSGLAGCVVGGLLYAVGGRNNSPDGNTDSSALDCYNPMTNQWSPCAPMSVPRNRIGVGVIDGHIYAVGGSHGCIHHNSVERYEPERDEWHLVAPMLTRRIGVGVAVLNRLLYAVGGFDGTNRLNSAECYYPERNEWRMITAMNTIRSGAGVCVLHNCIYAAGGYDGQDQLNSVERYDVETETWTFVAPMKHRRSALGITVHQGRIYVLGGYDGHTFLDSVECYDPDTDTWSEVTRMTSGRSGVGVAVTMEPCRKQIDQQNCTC

Compound	Kd	activity in Keap1-Nrf2 fluorescence anisotropy assay
COc1ccc(S(=O)(=O)N(CC(N)=O)c2ccc(N(CC(N)=O)S(=O)(=O)c3cccc4ccccc34)c3ccccc23)cc1 [Compound A1, 2-(N-(4-((N-(2-amino-2-oxoethyl)-4-methoxyphenyl)sulfonamido)naphthalen-1-yl)naphthalene-1-sulfonamido)acetamide]	> 10000 nM	did not show apparent activity
COc1ccc(S(=O)(=O)N(CC(N)=O)c2ccc(N(CC(N)=O)S(=O)(=O)c3ccc4ccccc4c3)c3ccccc23)cc1 [Compound A2, 2-(N-(4-((N-(2-amino-2-oxoethyl)-4-methoxyphenyl)sulfonamido)naphthalen-1-yl)naphthalene-2-sulfonamido)acetamide]	1300 nM	–
COc1ccc(S(=O)(=O)N(CC(N)=O)c2ccc(N(CC(N)=O)S(=O)(=O)c3ccc(-c4ccccc4)cc3)c3ccccc23)cc1 [Compound A3, 2-(N-(4-((N-(2-amino-2-oxoethyl)-4-methoxyphenyl)sulfonamido)naphthalen-1-yl)-[1,1'-biphenyl]-4-sulfonamido)acetamide]	> 10000 nM	did not show apparent activity
COc1ccc(S(=O)(=O)N(CC(N)=O)c2ccc(N(CC(N)=O)S(=O)(=O)c3cccs3)c3ccccc23)cc1 [Compound A4, 2-(N-(4-((N-(2-amino-2-oxoethyl)-4-methoxyphenyl)sulfonamido)naphthalen-1-yl)thiophene-2-sulfonamido)acetamide]	1110 nM	–
COc1ccc(S(=O)(=O)N(CC(N)=O)c2ccc(N(CC(N)=O)S(=O)(=O)c3ccc(Cl)nc3)c3ccccc23)cc1 [Compound A5, 2-((N-(4-((N-(2-amino-2-oxoethyl)-4-methoxyphenyl)sulfonamido)naphthalen-1-yl)-6-chloropyridine)-3-sulfonamido)acetamide]	> 10000 nM	did not show apparent activity
COc1ccc(S(=O)(=O)N(CC(N)=O)c2ccc(N(CC(N)=O)S(=O)(=O)N3CCOCC3)c3ccccc23)cc1 [Compound A6, 2-(N-(4-((N-(2-amino-2-oxoethyl)-4-methoxyphenyl)sulfonamido)naphthalen-1-yl)morpholine-4-sulfonamido)acetamide]	2070 nM	–
COc1ccc(S(=O)(=O)N(CC(N)=O)c2ccc(N(CC(N)=O)S(=O)(=O)c3sc(N(CC(N)=O)C(C)=O)nc3C)c3ccccc23)cc1 [Compound A7, N-(2-amino-2-oxoethyl)-N-(5-(N-(2-amino-2-oxoethyl)-N-(4-((N-(2-amino-2-oxoethyl)-4-methoxy-phenyl)sulfonamido)naphthalen-1-yl)sulfamoyl)-4-methylthiazol-2-yl)acetamide]	1430 nM	–
COc1ccc(S(=O)(=O)N(CC(N)=O)c2ccc(N(CC(N)=O)S(=O)(=O)c3cn(C)cn3)c3ccccc23)cc1 [Compound A8, 2-((N-(4-((N-(2-amino-2-oxoethyl)-1-methyl-1H-imidazole)-4-sulfonamido)naphthalen-1-yl)-4-methoxyphenyl)sulfonamido)acetamide]	1150 nM	–
COc1ccc(S(=O)(=O)N(CC(N)=O)c2ccc(N(CC(N)=O)S(=O)(=O)c3cnn(C)c3)c3ccccc23)cc1 [Compound A9, 2-((N-(4-((N-(2-amino-2-oxoethyl)-1-methyl-1H-pyrazole)-4-sulfonamido)naphthalen-1-yl)-4-methoxyphenyl)sulfonamido)acetamide]	1140 nM	–
COc1ccc(S(=O)(=O)N(CC(N)=O)c2ccc(N(CC(N)=O)S(=O)(=O)c3c(C)c(C)c4c(c3C)CC(C)(C)O4)c3ccccc23)cc1 [Compound A10, 2-((N-(4-((N-(2-amino-2-oxoethyl)-2,2,4,6,7-pentamethyl-2,3-dihydrobenzofuran)-5-sulfonamido)naphthalen-1-yl)-4-methoxyphenyl)sulfonamido)acetamide]	3270 nM	–
COc1ccc(S(=O)(=O)N(CC(N)=O)c2ccc(N(CC(N)=O)S(=O)(=O)c3ccc4c(c3)CCO4)c3ccccc23)cc1 [Compound A11, 2-((N-(4-((N-(2-amino-2-oxoethyl)-2,3-dihydrobenzofuran)-5-sulfonamido)naphthalen-1-yl)-4-methoxyphenyl)sulfonamido)acetamide]	1280 nM	–
COc1ccc(S(=O)(=O)N(CC(N)=O)c2ccc(N(CC(N)=O)S(=O)(=O)c3c(C)noc3C)c3ccccc23)cc1 [Compound A12, 2-((N-(4-((N-(2-amino-2-oxoethyl)-3,5-dimethylisoxazole)-4-sulfonamido)naphthalen-1-yl)-4-methoxyphenyl)sulfonamido)acetamide]	> 10000 nM	did not show apparent activity
COc1ccc(S(=O)(=O)N(CC(N)=O)c2ccc(N(CC(N)=O)S(=O)(=O)c3sc4ccc(Cl)cc4c3C)c3ccccc23)cc1 [Compound A13, 2-((N-(4-((N-(2-amino-2-oxoethyl)-4-methoxyphenyl)sulfonamido)naphthalen-1-yl)-5-chloro-3-methylbenzo[b]thiophene)-2-sulfonamido)acetamide]	> 10000 nM	did not show apparent activity

— paper PMC10331597 (Redox Biology, 2023)
